Source: ChEMBL document CHEMBL1158016, “Six new spongian diterpenes from the sponge spongia matamata” (J Nat Prod, 1999)
Values after ≈ are worked out from the molar mass of the structure shown.

system: Artemia; test: (§1) Toxicity in brine shrimp; type: organism-based; settings: in vivo

| SMILES | Activity |
| --- | --- |
| CO[C@@H]1OC(=O)C2=C1CC[C@@H]1[C@@]3(C)CCC[C@](C)(C(=O)O)[C@@H]3CC[C@@]21C | Non-toxic |
| CO[C@H]1OC(=O)C2=C1[C@]1(C)CC[C@@H]3[C@](C)(CCC[C@]3(C)C(=O)O)[C@H]1CC2 | Non-toxic |
| C[C@]12CCC[C@](C)(C(=O)O)[C@@H]1CC[C@@]1(C)C3=C(CC[C@H]21)C(=O)OC3 | Non-toxic |
| C[C@]12CCC[C@](C)(C(=O)O)[C@@H]1CC[C@@]1(C)C3=C(CC[C@H]21)COC3=O | Non-toxic |
| COC1O[C@H](OC)[C@]2(O)[C@]1(O)CC[C@@H]1[C@@]3(C)CCC[C@](C)(C(=O)O)[C@@H]3CC[C@]12C (stereo partly specified) | Non-toxic |

system: not listed separately; test: as §1; type: organism-based; settings: artemia, in vivo

| SMILES | LC50 |
| --- | --- |
| C[C@]12CCC[C@](C)(C(=O)O)[C@@H]1CC[C@@]1(C)c3cocc3CC[C@H]21 | 10 µg/mL (≈ 31.6 µM) |
